Experimental data published in patent US20220081412A1, “QUINOLINYL-PYRAZINE-CARBOXAMIDE COMPOUNDS AND USES THEREOF” (The Regents of the University of Michigan, priority 2018, published 2022).

Tested on: NCI60 cell lines
Assay: NCI60 cell line panel
Assay type: cell-based, human
Experimental: The Developmental Therapeutics Program (DTP) of NCI has evaluated more than 100,000 pure compounds and more than 34,000 crude extracts against the panel of human tumor cell lines. The resultant data are analyzed using a program called COMPARE, that rank the entire database of tested compounds in the order of the similarity of the responses. […] Thus, the NCI60 databases is highly useful to the cancer research community. Further experiments were conducted that tested some of the active compounds in a panel of NCI60 cell line to relate our compounds with some known inhibitors to have an idea of possible mechanism of action.
In order to understand the selectivity of these compounds in different cancer types, some of them were tested against a panel of 60 cell lines (Table XXXIX).

For CCN(CC)CCCC(C)Nc1cnc(C(=O)Nc2ccc(Cl)c3cccnc23)cn1 (centres unmarked) [J9, N-(5-chloroquinolin-8-yl)-5-((5-(diethylamino)pentan-2-yl)amino)pyrazine-2-carboxamide], the “GIPRCNT: % Growth inhibition” value (Breast Cancer, BT-549) was 80.08%, the “GIPRCNT: % Growth inhibition” value (Breast Cancer, HS 578T) was 51.41% and the “GIPRCNT: % Growth inhibition” value (Breast Cancer, MCF7) was −2.145%. For the same compound, the “GIPRCNT: % Growth inhibition” value (Breast Cancer, MDA-MB-231/ATCC) was −29.6765%, the “GIPRCNT: % Growth inhibition” value (Breast Cancer, MDA-MB-468) was −28.0145% and the “GIPRCNT: % Growth inhibition” value (Breast Cancer, T-47D) was −49.3289%. The “GIPRCNT: % Growth inhibition” value (CNS Cancer, SF-268) was 35.85%, the “GIPRCNT: % Growth inhibition” value (CNS Cancer, SF-295) was 63.03% and the “GIPRCNT: % Growth inhibition” value (CNS Cancer, SF-539) was −73.563%. For the same compound, the “GIPRCNT: % Growth inhibition” value (CNS Cancer, SNB-19) was 49.65%, the “GIPRCNT: % Growth inhibition” value (CNS Cancer, SNB-75) was 41.7% and the “GIPRCNT: % Growth inhibition” value (CNS Cancer, U251) was −35.3044%. For the same compound, the “GIPRCNT: % Growth inhibition” value (Colon Cancer, COLO 205) was −66.6925%, the “GIPRCNT: % Growth inhibition” value (Colon Cancer, HCC-2998) was 32.59% and the “GIPRCNT: % Growth inhibition” value (Colon Cancer, HCT-15) was 3.732%. For the same compound, the “GIPRCNT: % Growth inhibition” value (Colon Cancer, HCT-116) was −52.4351%, the “GIPRCNT: % Growth inhibition” value (Colon Cancer, HT29) was −49.3651% and the “GIPRCNT: % Growth inhibition” value (Colon Cancer, KM12) was 30.3%. The “GIPRCNT: % Growth inhibition” value (Colon Cancer, SW-620) was 0.6189%, the “GIPRCNT: % Growth inhibition” value (Leukemia, CCRF-CEM) was 5.288% and the “GIPRCNT: % Growth inhibition” value (Leukemia, HL-60(TB)) was −63.3005%. For the same compound, the “GIPRCNT: % Growth inhibition” value (Leukemia, K-562) was −45.7589%, the “GIPRCNT: % Growth inhibition” value (Leukemia, MOLT-4) was 2.901% and the “GIPRCNT: % Growth inhibition” value (Leukemia, RPMI-8226) was 2.196%. For the same compound, the “GIPRCNT: % Growth inhibition” value (Leukemia, SR) was 1.416%, the “GIPRCNT: % Growth inhibition” value (Melanoma, LOX IMVI) was −83.8894% and the “GIPRCNT: % Growth inhibition” value (Melanoma, M14) was −73.1499%. For the same compound, the “GIPRCNT: % Growth inhibition” value (Melanoma, MALME-3M) was −71.7698%, the “GIPRCNT: % Growth inhibition” value (Melanoma, MDA-MB-435) was −57.8225% and the “GIPRCNT: % Growth inhibition” value (Melanoma, SK-MEL-2) was 57.84%. The “GIPRCNT: % Growth inhibition” value (Melanoma, SK-MEL-5) was −3.699%, the “GIPRCNT: % Growth inhibition” value (Melanoma, UACC-62) was −52.4398% and the “GIPRCNT: % Growth inhibition” value (Melanoma, UACC-257) was −32.9601%. For the same compound, the “GIPRCNT: % Growth inhibition” value (Non-Small Cell Lung Cancer, A549/ATCC) was 23.43%, the “GIPRCNT: % Growth inhibition” value (Non-Small Cell Lung Cancer, EKVX) was 66.07% and the “GIPRCNT: % Growth inhibition” value (Non-Small Cell Lung Cancer, HOP-62) was 43.04%. The “GIPRCNT: % Growth inhibition” value (Non-Small Cell Lung Cancer, HOP-92) was 38.78%, the “GIPRCNT: % Growth inhibition” value (Non-Small Cell Lung Cancer, NCI-H23) was 80.43% and the “GIPRCNT: % Growth inhibition” value (Non-Small Cell Lung Cancer, NCI-H226) was 39.13%. The “GIPRCNT: % Growth inhibition” value (Non-Small Cell Lung Cancer, NCI-H322M) was 35.3%, the “GIPRCNT: % Growth inhibition” value (Non-Small Cell Lung Cancer, NCI-H460) was 3.469% and the “GIPRCNT: % Growth inhibition” value (Non-Small Cell Lung Cancer, NCI-H522) was 4.415%. For the same compound, the “GIPRCNT: % Growth inhibition” value (Ovarian Cancer, IGROV1) was 44.22%, the “GIPRCNT: % Growth inhibition” value (Ovarian Cancer, NCI/ADR-RES) was 52.19% and the “GIPRCNT: % Growth inhibition” value (Ovarian Cancer, OVCAR-3) was −23.663%. For the same compound, the “GIPRCNT: % Growth inhibition” value (Ovarian Cancer, OVCAR-4) was 51.32%, the “GIPRCNT: % Growth inhibition” value (Ovarian Cancer, OVCAR-5) was 53.28% and the “GIPRCNT: % Growth inhibition” value (Ovarian Cancer, OVCAR-8) was 27.34%. For the same compound, the “GIPRCNT: % Growth inhibition” value (Ovarian Cancer, SK-OV-3) was 79.51%, the “GIPRCNT: % Growth inhibition” value (Prostate Cancer, DU-145) was 53.1% and the “GIPRCNT: % Growth inhibition” value (Prostate Cancer, PC-3) was 39.38%. The “GIPRCNT: % Growth inhibition” value (Renal Cancer, 786-0) was −44.1831%, the “GIPRCNT: % Growth inhibition” value (Renal Cancer, A498) was 53.99% and the “GIPRCNT: % Growth inhibition” value (Renal Cancer, ACHN) was −54.7701%. For the same compound, the “GIPRCNT: % Growth inhibition” value (Renal Cancer, CAKI-1) was 23.14%, the “GIPRCNT: % Growth inhibition” value (Renal Cancer, RXF 393) was 18.75% and the “GIPRCNT: % Growth inhibition” value (Renal Cancer, SN12C) was 31.6819%. For the same compound, the “GIPRCNT: % Growth inhibition” value (Renal Cancer, TK-10) was 57.61% and the “GIPRCNT: % Growth inhibition” value (Renal Cancer, UO-31) was 23.83%.
